Among the data in PMC11908749 (Chemistry & Biodiversity, 2025) are IC50 values, retold here.

Type in all cases: cell-based
Test [1] has as its system U‐251 (human glioblastoma cell line). As to the kind of experiment: SRB cytotoxicity, U-251 cells. The following applies: read-out: IC50 U‐251, non-linear regression.
The test system of test [2] is MCF‐7 (human mammary adenocarcinoma). As to the kind of experiment: SRB cytotoxicity, MCF-7 cells. The following applies: read-out: IC50 MCF‐7, non-linear regression.
The test system of test [3] is SK‐LU‐1 (human lung adenocarcinoma). As to the kind of experiment: SRB cytotoxicity, SK-LU-1 cells. The following applies: read-out: IC50 SK‐LU‐1, non-linear regression.

The IC50 is the concentration at which inhibition is half-maximal. For the substance curcumin, the figures for the IC50 in test [1], in test [2] and in test [3] were 20.5 ± 1.7 µM, 18.4 ± 0.9 µM and 12.9 ± 0.7 µM, respectively.
